This note sets out measurements from patent publication US10077264B2, “Derivatives and methods of treating hepatitis B infections” (Novira Therapeutics, Inc., priority 2014, dated 2018).

By EC50 is commonly meant the midpoint of the concentration-response curve.

The subject of the first assay is HBV replication in HepG2.2.15 cells. The assay is described as follows: HBV replication inhibition assay (BDNA assay). It counts as cell-based. Conditions: HepG2.2.15 cells, 6 days, encapsidated HBV DNA in supernatant; read-out: Activity in BDNA-assay (EC50). From the text:
HBV replication inhibition by the compounds of this invention could be determined in cells infected or transfected with HBV, or cells with stably integrated HBV, such as HepG2.2.15 cells (Sells et al. 1987). In this example, HepG2.2.15 cells were maintained in cell culture medium containing 10% fetal bovine serum (FBS), Geneticin, L-glutamine, penicillin and streptomycin. HepG2.2.15 cells could be seeded in 96-well plates at a density of 40,000 cells/well and be treated with serially diluted compounds at a final DMSO concentration of 0.5% either alone or in combination by adding drugs in a checker box format. Cells were incubated with compounds for three days, after which medium was removed and fresh medium containing compounds was added to cells and incubated for another three days. At day 6, supernatant was removed and treated with DNase at 37° C. for 60 minutes, followed by enzyme inactivation at 75° C. for 15 minutes. Encapsidated HBV DNA was released from the virions and covalently linked HBV polymerase by incubating in lysis buffer (Affymetrix QS0010) containing […] proteinase K at 50° C. for 40 minutes. HBV DNA was denatured by addition of 0.2 M NaOH and detected using a branched DNA (BDNA) QuantiGene assay kit according to manufacturer recommendation (Affymetrix). HBV DNA levels could also be quantified using qPCR, based on amplification of encapsidated HBV DNA extraction with QuickExtraction Solution (Epicentre Biotechnologies) and amplification of HBV DNA using HBV specific PCR probes that can hybridize to HBV DNA and a fluorescently labeled probe for quantitation. In addition, cell viability of HepG2.2.15 cells incubated with test compounds alone or in combination was determined by using CellTitre-Glo reagent according to the manufacturer protocol (Promega). The mean background signal from wells containing only culture medium was subtracted from all other samples, and percent inhibition at each compound concentration was calculated by normalizing to signals from HepG2.2.15 cells treated with 0.5% DMSO using equation E1. % inhibition=(DMSOave−Xi)/DMSOave×100% E1: • where DMSOave is the mean signal calculated from the wells that were treated with DMSO control (0% inhibition control) and Xi is the signal measured from the individual wells. EC50 values, effective concentrations that achieved 50% inhibitory effect, were determined by non-linear fitting using Graphpad Prism software (San Diego, Calif.) and equation E2 Y=Ymin+(Ymax−Ymin)/(1+10(Log EC50−X)×HillSlope) E2: • where Y represents percent inhibition values and X represents the logarithm of compound concentrations.
Selected compounds of the invention were assayed in the HBV replication assay (BDNA assay), as described above and a representative group of these active compounds is shown in Table 3.
Regarding `CC1Cc2[nH]nc(-c3ccccc3)c2CN1C(=O)Nc1cccc(Cl)c1` (single isomer, unassigned) [317 (E1), N-(3-chlorophenyl)-6-methyl-3-phenyl-1,4,6,7-tetrahydropyrazolo[4,3-c]pyridine-5-carboxamide], the EC50 lay within 10 to 100 nM. Same read-out and setting: then `CC1Cc2[nH]nc(-c3ccccc3)c2CN1C(=O)Nc1cccc(Cl)c1` (single isomer, unassigned) [317 (E2), N-(3-chlorophenyl)-6-methyl-3-phenyl-1,4,6,7-tetrahydropyrazolo[4,3-c]pyridine-5-carboxamide], with 100 to 500 nM; and `CC1c2c(-c3ccccc3)n[nH]c2CCN1C(=O)Nc1cccc(Cl)c1` (single isomer, unassigned) [318 (E2), N-(3-chlorophenyl)-4-methyl-3-phenyl-1,4,6,7-tetrahydropyrazolo[4,3-c]pyridine-5-carboxamide], with 100 to 500 nM. On the same count and under the same terms, then `CC1Cc2[nH]nc(-c3cscn3)c2CN1C(=O)Nc1ccc(F)c(Cl)c1` (centres unmarked) [917 E2], with 10 to 100 nM. The same measure, in the same setting: then `CC1Cc2[nH]nc(-c3cscn3)c2CN1C(=O)Nc1cccc(Br)c1` (centres unmarked) [918 E2], with 10 to 100 nM; and `CC1Cc2[nH]nc(-c3cscn3)c2CN1C(=O)Nc1ccc(F)c(Br)c1` (centres unmarked) [919 E2], with 10 to 100 nM; and `CC1Cc2[nH]nc(-c3cscn3)c2CN1C(=O)Nc1cccc(Br)c1F` (centres unmarked) [920 E2], with 10 to 100 nM. Take `CC1Cc2[nH]nc(-c3cscn3)c2CN1C(=O)Nc1ccnc(Br)c1F` (centres unmarked) [921 E2]: the EC50 lay within 10 to 100 nM. Still for that read-out and setting: then `CC1Cc2[nH]nc(-c3cscn3)c2CN1C(=O)Nc1ccc(F)c(C#N)c1` (centres unmarked) [922 E2], with 10 to 100 nM. The same measure, in the same setting: then `Cc1cccc(NC(=O)N2Cc3c(-c4cscn4)n[nH]c3CC2C)c1` (centres unmarked) [923 E2], with 10 to 100 nM; and `Cc1cc(NC(=O)N2Cc3c(-c4cscn4)n[nH]c3CC2C)ccc1F` (centres unmarked) [924 E2], with 10 to 100 nM.

Staying with this assay, now noted: Hepatitis B virus, 144 h; HepG2.2.15 cells, 10 μM, 6 days, encapsidated HBV DNA in supernatant; read-out: Activity in BDNA-assay (activity at 10 μM).
In the case of `O=C(C1C[C@H]1c1ccccc1)N1CCc2[nH]nc(-c3ccccc3)c2C1` (stereo in doubt) [Compound 030, (2-phenylcyclopropyl)-(3-phenyl-2,4,6,7-tetrahydropyrazolo[4,3-c]pyridin-5-yl)methanone], the inhibition at 10 µM was over 50%. Still for that read-out and setting: then `O=C(COc1cncnc1)N1CCc2[nH]nc(-c3ccccc3)c2C1` [Compound 001], with over 50%; and `CC(OC(=O)N1CCc2[nH]nc(-c3ccccc3)c2C1)c1ccccc1` (centres unmarked) [Compound 016, 1-phenylethyl 3-phenyl-1,4,6,7-tetrahydropyrazolo[4,3-c]pyridine-5-carboxylate], with over 50%; and `O=C(NCc1ccccc1)N1CCc2[nH]nc(-c3ccccc3)c2C1` [Compound 017, N-benzyl-3-phenyl-1,4,6,7-tetrahydropyrazolo[4,3-c]pyridine-5-carboxamide], with over 50%. On the same count and under the same terms, then `O=C(OCc1ccccc1)N1CCc2[nH]nc(-c3ccccc3)c2C1` [Compound 024, benzyl 3-phenyl-1,4,6,7-tetrahydropyrazolo[4,3-c]pyridine-5-carboxylate], with over 50%; and `O=C(CCc1ccccc1)N1CCc2[nH]nc(-c3ccccc3)c2C1` [Compound 027, 3-phenyl-1-(3-phenyl-1,4,6,7-tetrahydropyrazolo[4,3-c]pyridin-5-yl)propan-1-one], with over 50%; and `O=C(/C=C/c1ccccc1)N1CCc2[nH]nc(-c3ccccc3)c2C1` [Compound 057, (E)-3-phenyl-1-(3-phenyl-1,4,6,7-tetrahydropyrazolo[4,3-c]pyridin-5-yl)prop-2-en-1-one], with over 50%. Still for that read-out and setting: the same measure for `O=C(Nc1ccc(Cl)cc1)N1CCc2[nH]nc(-c3ccccc3)c2C1` [Compound 113]: over 50%; for `O=C(COc1ccccc1F)N1CCc2[nH]nc(-c3ccccc3)c2C1` [Compound 142]: over 50%; for `O=C(COc1cccc(F)c1)N1CCc2[nH]nc(-c3ccccc3)c2C1` [Compound 143]: over 50%. Consider `O=C(COc1ccc(F)cc1)N1CCc2[nH]nc(-c3ccccc3)c2C1` [Compound 144], for which the inhibition at 10 µM was over 50%. Still for that read-out and setting: the same measure for `Cc1cccc(OCC(=O)N2CCc3[nH]nc(-c4ccccc4)c3C2)c1` [Compound 145]: over 50%; for `Cc1ccc(OCC(=O)N2CCc3[nH]nc(-c4ccccc4)c3C2)cc1` [Compound 147]: over 50%; for `O=C(COc1ccccc1Cl)N1CCc2[nH]nc(-c3ccccc3)c2C1` [Compound 148]: over 50%. Turning to `O=C(COc1cccc(Cl)c1)N1CCc2[nH]nc(-c3ccccc3)c2C1` [Compound 149], the inhibition at 10 µM was over 50%. On the same count and under the same terms, then `O=C(COc1ccc(Cl)cc1)N1CCc2[nH]nc(-c3ccccc3)c2C1` [Compound 150], with over 50%; and `N#Cc1ccccc1OCC(=O)N1CCc2[nH]nc(-c3ccccc3)c2C1` [Compound 154], with over 50%; and `N#Cc1ccc(OCC(=O)N2CCc3[nH]nc(-c4ccccc4)c3C2)cc1` [Compound 156], with over 50%. As for `O=C(COc1ccccc1C(F)(F)F)N1CCc2[nH]nc(-c3ccccc3)c2C1` [Compound 163], the inhibition at 10 µM was over 50%.

As to `O=C(COc1cccc(C(F)(F)F)c1)N1CCc2[nH]nc(-c3ccccc3)c2C1` [Compound 164], the inhibition at 10 µM is over 50%. As for `O=C(COc1ccc(C(F)(F)F)cc1)N1CCc2[nH]nc(-c3ccccc3)c2C1` [Compound 165], the inhibition at 10 µM was over 50%. On the same count and under the same terms, the same measure for `O=C(C1COc2ccccc2O1)N1CCc2[nH]nc(-c3ccccc3)c2C1` (centres unmarked) [Compound 171]: over 50%.

Still in this assay, the particulars now being: Hepatitis B virus, HepG2.2.15, 144 h, HepG2.2.15 cells, 6 days, encapsidated HBV DNA in supernatant; read-out: Activity in BDNA-assay (EC50).
Turning to `CC1c2c(-c3ccccc3)n[nH]c2CCN1C(=O)Nc1cccc(Cl)c1` (single isomer, unassigned) [318 (E1), N-(3-chlorophenyl)-4-methyl-3-phenyl-1,4,6,7-tetrahydropyrazolo[4,3-c]pyridine-5-carboxamide], the EC50 was in the range of 100 to 500 nM.

In the case of `CC1Cc2[nH]nc(-c3cscn3)c2CN1C(=O)Nc1ccc(F)c(Cl)c1` (centres unmarked) [917 E1, N-(3-chloro-4-fluoro-phenyl)-6-methyl-3-thiazol-4-yl-1,4,6,7-tetrahydropyrazolo[4,3-c]pyridine-5-carboxamide], the EC50 fell in the range of 10 to 100 nM.

Take `CC1Cc2[nH]nc(-c3cscn3)c2CN1C(=O)Nc1cccc(Br)c1` (centres unmarked) [918 E1]: the concentration giving a half-maximal response (EC50) fell in the range of 10 to 100 nM. On the same count and under the same terms, the same measure for `CC1Cc2[nH]nc(-c3cscn3)c2CN1C(=O)Nc1ccc(F)c(Br)c1` (centres unmarked) [919 E1]: 10 to 100 nM; for `CC1Cc2[nH]nc(-c3cscn3)c2CN1C(=O)Nc1cccc(Br)c1F` (centres unmarked) [920 E1]: 10 to 100 nM. Take `CC1Cc2[nH]nc(-c3cscn3)c2CN1C(=O)Nc1ccnc(Br)c1F` (centres unmarked) [921 E1]: the EC50 was in the range of 10 to 100 nM. Same read-out and setting: the same measure for `CC1Cc2[nH]nc(-c3cscn3)c2CN1C(=O)Nc1ccc(F)c(C#N)c1` (centres unmarked) [922 E1]: 10 to 100 nM. Same read-out and setting: the same measure for `Cc1cccc(NC(=O)N2Cc3c(-c4cscn4)n[nH]c3CC2C)c1` (centres unmarked) [923 E1]: 10 to 100 nM. On the same count and under the same terms, the same measure for `Cc1cc(NC(=O)N2Cc3c(-c4cscn4)n[nH]c3CC2C)ccc1F` (centres unmarked) [924 E1]: 10 to 100 nM; for `CC(Oc1ccccc1)C(=O)N1CCc2[nH]nc(-c3ccccc3)c2C1` (centres unmarked) [Compound 014, 2-phenoxy-1-(3-phenyl-1,4,6,7-tetrahydropyrazolo[4,3-c]pyridin-5-yl)propan-1-one]: 1000 to 1500 nM; for `O=C(Nc1cccc(Cl)c1)N1CCc2[nH]nc(-c3ccccc3)c2C1` [Compound 112]: 10 to 100 nM. With `O=C(Nc1ccc(F)c(Cl)c1)N1CCc2[nH]nc(-c3ccccc3)c2C1` [Compound 114], the EC50 lay in the range of 10 to 100 nM.

The same assay, now with this note: Hepatitis B virus, HepG2.2.15, 144 h, read-out: Activity in BDNA-assay (EC50).
On to `O=C(Nc1ccccc1)N1CCc2[nH]nc(-c3ccccc3)c2C1` [Compound 022, N,3-diphenyl-1,4,6,7-tetrahydropyrazolo[4,3-c]pyridine-5-carboxamide], for which the EC50 is 100 to 500 nM.

The assay is the same for the next values; noted with them: Hepatitis B virus, HepG2.2.15, 144 h, read-out: Activity in BDNA-assay (activity at 10 μM).
For `O=C(Oc1ccccc1)N1CCc2[nH]nc(-c3ccccc3)c2C1` [Compound 021, phenyl3-phenyl-1,4,6,7-tetrahydropyrazolo[4,3-c]pyridine-5-carboxylate], the inhibition at 10 µM was over 50%.
